Source: patent publication US20230295152A1 (SENDA BIOSCIENCES, INC., priority 2019, published 2023)
Converted amounts (≈) assume the structure as drawn. Where two headings read alike, the source gives them in different places.

Legend:
[1] = Hepatocyte Stability Assay, human; type: in vitro ADME; conditions: for CLint scaled at 1 μM: cryopreserved hepatocytes in suspension, human hepatocytes, read-out: Human hepatocyte clearance; for Human hepatocyte intrinsic clearance, suspension Hheps ClInt (% Qh): suspension human hepatocytes
Protocol: • Preparation of working solutions: 10 mM stock solutions of test compound and positive control were prepared in DMSO. In separate conical tubes, the 10 mM solution of test compound and the positive control were diluted to 100 μM by combining 198 μL of 50% acetonitrile/50% water and 2 μL of 10 mM stock.
Preparation of Hepatocytes: Incubation medium (William's E Medium supplemented with GlutaMAX) and hepatocyte thawing medium were placed in a 37° C. water bath and allowed warming for at least 15 minutes prior to use. A vial of cryopreserved hepatocytes was transferred from storage, ensuring that vials remained at cryogenic temperatures until thawing process ensued. Cells were thawed by placing the vial in a 37° C. water bath and gently shaking the vials for 2 minutes. After thawing was completed, vial was sprayed with 70% ethanol and transferred to a biosafety cabinet. Wide-bore pipette tip were used to transfer hepatocytes into 50 mL conical tube containing thawing medium. The 50 mL conical tube were placed into a centrifuge and spun at 100 g for 10 minutes. Upon completion of spin, thawing medium was aspirated and resuspended hepatocytes in enough incubation medium to yield ˜1.5×10^6 cells/mL. Using an AO/PI Staining, cells were counted and the viable cell density was determined. Cells with poor viability (<75% viability) were determined to be not acceptable for use. Cells were diluted with incubation medium to a working cell density of 0.5×10^6 viable cells/mL.
Procedure for Stability Determination: 198 μL of hepatocytes were pipetted into each wells of a 96-well non-coated plate. The plate was placed in the incubator to allow the hepatocytes to warm for 10 minutes. 2 μL of the 100 μM test compound or positive control solutions were pipetted into respective wells of the 96-well non-coated plate to start the reaction. The plate was returned to the incubator for the designed time points. Well contents was transferred in 25 μL aliquots at time points of 0, 15, 30, 60, 90 and 120 minutes. The aliquots were then mixed with 6 volumes (150 μL) of acetonitrile containing internal standard, IS (100 nM alprazolam, 200 nM caffeine and 100 nM tolbutamide) to terminate the reaction. The mixture was vortex for 5 minutes. Samples were centrifuged for 45 minutes at 3,220 g. An aliquot of 100 μL of the supernatant was diluted by 100 μL ultra-pure water, and the mixture was used for LC/MS/MS analysis. All incubations were performed in duplicate.
Data Analysis: All calculations were carried out using Microsoft Excel. Peak areas were determined from extracted ion chromatograms. In vitro half-life (t1/2) of parent compound was determined by regression analysis of the percent parent disappearance vs. time curve.
The in vitro half-life (in vitro t1/2) was determined from the slope value:
Conversion of the in vitro t1/2 (in min) into the in vitro intrinsic clearance (in vitro CLint, in μL/min/1×10^6 cells) was done using the following equation (mean of duplicate determinations):
V=incubation volume(0.2 mL);
N=number of hepatocytes per well(0.1×10^6 cells).
“+++” indicates a CLint value less than 20 mL/min/Kg, “++” indicates a CLint between 20 and 50 mL/min/Kg, and “+” indicates an CLint above 50 mL/min/Kg.

[2] = Solubility Determination Assay in PBS pH 1.6 and pH 7.4; type: physicochemical; conditions: PBS buffer, aqueous buffer, kinetic from dmso stock
Method in brief: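 Compounds from 10 mM DMSO stock diluted into PBS pH 1.6 or pH 7.4 (15 μL into 485 μL), stirred 2 hours, then filtered. Filtrate quantified by LC-MS/MS against a standard of known concentration with internal standard; single determination.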

[3] = PBS pH 1.6, 25° C., read-out: Aq. Solubility at pH = 1.6
[4] = PBS pH 7.4, 25° C., read-out: Aq. Solubility at pH = 7.4

C[C@H](O)Cn1cnc2c(-c3cnn(C)c3)nc(-c3ccc(C(F)(F)F)nc3)cc2c1=O [Compound 109, (S)-3-(2-hydroxypropyl)-8-(1-methyl-1H-pyrazol-4-yl)-6-(6-(trifluoromethyl)pyridin-3-yl)pyrido[3,4-d]pyrimidin-4(3H)-one]
CLint scaled at 1 μM [1]: < 20 mL/min/kg | solubility at 2 h [2, 3]: 0.1 to 1 µM (≈ 0.043 to 0.43 µg/mL) | solubility at 2 h [2, 4]: 0.1 to 1 µM (≈ 0.043 to 0.43 µg/mL)

CC(C)(O)Cn1cnc2c(-c3cccnc3)nc(-c3ccc(C(F)(F)F)cc3)cc2c1=O [Compound 16]
CLint scaled at 1 μM [1]: < 20 mL/min/kg | solubility at 2 h [2, 3]: ≥ 1 µM | solubility at 2 h [2, 4]: ≥ 1 µM

C[C@@H](n1cnc2c(-c3cnn(C)c3)nc(-c3ccc(Cl)cc3)cc2c1=O)C(C)(C)O [Compound 31]
CLint scaled at 1 μM [1]: < 20 mL/min/kg | solubility at 2 h [2, 4]: 0.1 to 1 µM (≈ 0.0424 to 0.424 µg/mL)

O=c1c2cc(-c3ccc(Cl)cc3)nc(-c3cccnc3)c2ncn1[C@H]1COC[C@@H]1O [Compound 125, 6-(4-chlorophenyl)-3-((3S,4R)-4-hydroxytetrahydrofuran-3-yl)-8-(pyridin-3-yl)pyrido[3,4-d]pyrimidin-4(3H)-one]
CLint scaled at 1 μM [1]: < 20 mL/min/kg | solubility at 2 h [2, 3]: ≥ 1 µM | solubility at 2 h [2, 4]: ≥ 1 µM

Cn1cc(-c2nc(-c3ccc(C(F)(F)F)nc3)cc3c(=O)n([C@@H]4COC[C@H]4O)cnc23)cn1 [Compound 115, 3-((3R,4S)-4-hydroxytetrahydrofuran-3-y1)-8-(1-methyl-1H-pyrazol-4-y1)-6-(6-(trifluoromethyl)pyridin-3-yl)pyrido[3,4-d]pyrimidin-4(3H)-one]
CLint scaled at 1 μM [1]: < 20 mL/min/kg | solubility at 2 h [2, 3]: 0.1 to 1 µM (≈ 0.0458 to 0.458 µg/mL) | solubility at 2 h [2, 4]: 0.1 to 1 µM (≈ 0.0458 to 0.458 µg/mL)

O=c1c2cc(-c3ccc(C(F)(F)F)nc3)nc(-c3cccnc3)c2ncn1C[C@@H](O)C(F)(F)F [Compound 122, (R)-8-(pyridin-3-yl)-3-(3,3,3-trifluoro-2-hydroxypropyl)-6-(6-(trifluoromethyl)pyridin-3-yl)pyrido[3,4-d]pyrimidin-4(3H)-one]
CLint scaled at 1 μM [1]: < 20 mL/min/kg | solubility at 2 h [2, 3]: ≥ 1 µM | solubility at 2 h [2, 4]: ≥ 1 µM

Cn1cc(-c2nc(-c3ccc(Cl)cc3)cc3c(=O)n(CC(C)(C)O)cnc23)cn1 [Compound 21]
CLint scaled at 1 μM [1]: < 20 mL/min/kg | solubility at 2 h [2, 3]: ≥ 1 µM | solubility at 2 h [2, 4]: ≥ 1 µM

C[C@@H](CO)n1cnc2c(-c3cccc(F)c3)nc(-c3ccc(C(F)(F)F)cn3)cc2c1=O [Compound 47, (S)-8-(3-fluorophenyl)-3-(1-hydroxypropan-2-yl)-6-(5-(trifluoromethyl)pyridin-2-yl)pyrido[3,4-d]pyrimidin-4(3H)-one]
CLint scaled at 1 μM [1]: < 20 mL/min/kg | solubility at 2 h [2, 4]: 0.1 to 1 µM (≈ 0.0444 to 0.444 µg/mL)

C[C@@H](CO)n1cnc2c(-n3ccnc3)nc(-c3ccc(C(F)(F)F)cn3)cc2c1=O [Compound 162, (S)-3-(1-hydroxypropan-2-yl)-8-(1H-imidazol-1-yl)-6-(5-(trifluoromethyl)pyridin-2-yl)pyrido[3,4-d]pyrimidin-4(3H)-one]
CLint scaled at 1 μM [1]: < 20 mL/min/kg | solubility at 2 h [2, 3]: ≥ 1 µM | solubility at 2 h [2, 4]: ≥ 1 µM

C[C@@H](CO)n1cnc2c(-n3ccnc3)nc(-c3ccc(OC(F)(F)F)cc3)cc2c1=O [Compound 44, (S)-3-(1-hydroxypropan-2-yl)-8-(1H-imidazol-1-yl)-6-(4-(trifluoromethoxy)-phenyl)pyrido[3,4-d]pyrimidin-4(3H)-one]
CLint scaled at 1 μM [1]: < 20 mL/min/kg | solubility at 2 h [2, 4]: 0.1 to 1 µM (≈ 0.0431 to 0.431 µg/mL)

O=c1c2cc(-c3ccc(C(F)(F)F)nc3)nc(-c3cccnc3)c2ncn1[C@H]1COC[C@H]1O [Compound 126, 3-((3S,4S)-4-hydroxytetrahydrofuran-3-yl)-8-(pyridin-3-yl)-6-(6-(trifluoromethyl)pyridin-3-yl)pyrido[3,4-d]pyrimidin-4(3H)-one]
CLint scaled at 1 μM [1]: < 20 mL/min/kg | solubility at 2 h [2, 3]: ≥ 1 µM | solubility at 2 h [2, 4]: ≥ 1 µM

C[C@@H](CO)n1cnc2c(-c3cccnc3)nc(-c3ccc(C(F)(F)F)cc3)cc2c1=O [Compound 23]
CLint scaled at 1 μM [1]: < 20 mL/min/kg | solubility at 2 h [2, 3]: ≥ 1 µM | solubility at 2 h [2, 4]: ≥ 1 µM

O=c1c2cc(-c3ccc(C(F)(F)F)cn3)nc(-c3cccnc3)c2ncn1[C@H]1COC[C@H]1O [Compound 145, 3-((3S,4S)-4-hydroxytetrahydrofuran-3-yl)-8-(pyridin-3-yl)-6-(5-(trifluoromethyl)pyridin-2-yl)pyrido[3,4-d]pyrimidin-4(3H)-one]
CLint scaled at 1 μM [1]: < 20 mL/min/kg | solubility at 2 h [2, 3]: ≥ 1 µM | solubility at 2 h [2, 4]: 0.1 to 1 µM (≈ 0.0455 to 0.455 µg/mL)

C[C@@H](CO)n1cnc2c(-c3cncc(F)c3)nc(-c3ccc(OC(F)(F)F)cc3)cc2c1=O [Compound 1, (S)-8-(5-fluoropyridin-3-yl)-3-(1-hydroxypropan-2-yl)-6-(4-(trifluoromethoxy)phenyl)pyrido[3,4-d]pyrimidin-4(3H)-one]
CLint scaled at 1 μM [1]: < 20 mL/min/kg | solubility at 2 h [2, 4]: 0.1 to 1 µM (≈ 0.046 to 0.46 µg/mL)

C[C@@H](CO)n1cnc2c(-c3cccnc3)nc(-c3ccc(OC(F)(F)F)nc3)cc2c1=O [Compound 50]
CLint scaled at 1 μM [1]: 20 to 50 mL/min/kg | solubility at 2 h [2, 3]: ≥ 1 µM | solubility at 2 h [2, 4]: ≥ 1 µM

Cn1cc(-c2nc(-c3ccc(Cl)cc3)cc3c(=O)n([C@H]4COC[C@@H]4O)cnc23)cn1 [Compound 116]
CLint scaled at 1 μM [1]: < 20 mL/min/kg | solubility at 2 h [2, 3]: 0.1 to 1 µM (≈ 0.0424 to 0.424 µg/mL) | solubility at 2 h [2, 4]: 0.1 to 1 µM (≈ 0.0424 to 0.424 µg/mL)

O=c1c2cc(-c3ccc(Cl)cc3)nc(-c3cccnc3)c2ncn1C[C@@H](O)C(F)(F)F (single isomer, unassigned) [185 enantiomer 1]
CLint scaled at 1 μM [1]: < 20 mL/min/kg | solubility at 2 h [2, 3]: ≥ 1 µM | solubility at 2 h [2, 4]: 0.1 to 1 µM (≈ 0.0447 to 0.447 µg/mL)

C[C@@H](CO)n1cnc2c(-c3cccnc3)nc(-c3ccc(C(F)(F)F)cn3)cc2c1=O [Compound 46, (S)-3-(1-hydroxypropan-2-yl)-8-(pyridin-3-yl)-6-(5-(trifluoromethyl)pyridin-2-yl)pyrido[3,4-d]pyrimidin-4(3H)-one]
CLint scaled at 1 μM [1]: < 20 mL/min/kg | Human hepatocyte intrinsic clearance, suspension Hheps ClInt (% Qh) [1]: <31 % Qh | solubility at 2 h [2, 3]: ≥ 1 µM | solubility at 2 h [2, 4]: ≥ 1 µM

C[C@@H](CO)n1cnc2c(-c3cnn(C)c3)nc(-c3ccc(C4CC4)nc3)cc2c1=O [Compound 83]
CLint scaled at 1 μM [1]: < 20 mL/min/kg | solubility at 2 h [2, 3]: ≥ 1 µM | solubility at 2 h [2, 4]: ≥ 1 µM

C[C@@H](CO)n1cnc2c(-c3cccnc3)nc(-c3cnc(C(F)(F)F)nc3)cc2c1=O [Compound 86]
CLint scaled at 1 μM [1]: < 20 mL/min/kg | solubility at 2 h [2, 3]: ≥ 1 µM | solubility at 2 h [2, 4]: ≥ 1 µM

C[C@@H](CO)n1cnc2c(-c3cccc(F)c3)nc(-c3ccc(C(F)(F)F)nc3)cc2c1=O [Compound 8]
CLint scaled at 1 μM [1]: < 20 mL/min/kg | solubility at 2 h [2, 4]: ≥ 1 µM

C[C@@H](CO)n1cnc2c(-c3cnn(C)c3)nc(-c3ccc(OC(F)(F)F)cc3)cc2c1=O [Compound 25]
CLint scaled at 1 μM [1]: < 20 mL/min/kg | solubility at 2 h [2, 3]: 0.1 to 1 µM (≈ 0.0445 to 0.445 µg/mL) | solubility at 2 h [2, 4]: < 0.1 µM

CC(C)(O)Cn1cnc2c(-n3ccnc3)nc(-c3ccc(C(F)(F)F)cn3)cc2c1=O [Compound 160, 3-(2-hydroxy-2-methylpropyl)-8-(1H-imidazol-1-yl)-6-(5-(trifluoromethyl)pyridin-2-yl)pyrido[3,4-d]pyrimidin-4(3H)-one]
CLint scaled at 1 μM [1]: < 20 mL/min/kg | solubility at 2 h [2, 3]: ≥ 1 µM | solubility at 2 h [2, 4]: ≥ 1 µM

Cn1cc(-c2nc(-c3ccc(C(F)(F)F)nc3)cc3c(=O)n(CC(C)(C)O)cnc23)cn1 [Compound 60]
CLint scaled at 1 μM [1]: < 20 mL/min/kg | solubility at 2 h [2, 3]: ≥ 1 µM | solubility at 2 h [2, 4]: ≥ 1 µM

O=c1c2cc(-c3ccc(Cl)cc3)nc(-c3cccnc3)c2ncn1[C@@H]1COC[C@H]1O [Compound 152, 6-(4-chlorophenyl)-3-((3R,4S)-4-hydroxytetrahydrofuran-3-yl)-8-(pyridin-3-yl)pyrido[3,4-d]pyrimidin-4(3H)-one]
CLint scaled at 1 μM [1]: 20 to 50 mL/min/kg | solubility at 2 h [2, 3]: ≥ 1 µM | solubility at 2 h [2, 4]: ≥ 1 µM

CC(C)(O)Cn1cnc2c(-c3cccnc3)nc(-c3ccc(C(F)(F)F)nc3)cc2c1=O [Compound 9]
CLint scaled at 1 μM [1]: < 20 mL/min/kg | Human hepatocyte intrinsic clearance, suspension Hheps ClInt (% Qh) [1]: <31 % Qh | solubility at 2 h [2, 3]: ≥ 1 µM | solubility at 2 h [2, 4]: ≥ 1 µM
